Consider 9 molecules from patent US20160242416A1, “FUNGICIDAL ISOXAZOLINE CARBINOLS” (E I DU PONT DE NEMOURS AND COMPANY, priority 2015, published 2016).

Structures are written as SMILES.

The subject of experiment [1] is Phytophthora infestans. Format: in vivo. As to conditions: 50 ppm (asterisk); tomato late blight; 100 = 100% disease control, 0 = no control.
Experiment [2] concerns Erysiphe graminis f sp. tritici. Briefly: Test G: wheat powdery mildew, preventive spray on wheat seedlings. As to conditions: 50 ppm (asterisk); wheat powdery mildew; 100 = 100% disease control, 0 = no control.
For experiment [3], the system named is Zymoseptoria tritici. As to the kind of experiment: Test E: wheat leaf blotch, preventive spray on wheat seedlings. As to conditions: 50 ppm (asterisk); wheat leaf blotch; 100 = 100% disease control, 0 = no control.
The test system of experiment [4] is Stagonospora nodorum. As to the kind of experiment: Test D: wheat glume blotch, preventive spray on wheat seedlings. The settings on record: 50 ppm (asterisk); wheat glume blotch; 100 = 100% disease control, 0 = no control.
Text: (§1) General protocol for preparing test solutions for Tests A-G: the test compounds were first dissolved in acetone in an amount equal to 3% of the final volume and then suspended at the desired concentration (in ppm) in acetone and purified water (50/50 mix by volume) containing 250 ppm of the surfactant PEG400 (polyhydric alcohol esters). The resulting test suspensions were then used in Tests A-G. Compounds were sprayed at a concentration of 50 ppm (*) or 10 ppm to the point of run-off on the test plants, the equivalent of a rate of 200 g/ha or 40 g/ha, respectively.
The test solution was sprayed to the point of run-off on wheat seedlings. The following day the seedlings were inoculated with a spore suspension of Stagonospora nodorum (also known as Septoria nodorum; the causal agent of wheat glume blotch) and incubated in a saturated atmosphere at 20° C. for 48 h, and then moved to a growth chamber at 20° C. for 6 days, after which time visual disease ratings were made.
(§2) Compounds with an asterisks (*) were applied at a concentration of 50 ppm, otherwise test solutions were applied at 10 ppm.
The test system of experiment [5] is Puccinia recondita f sp. tritici. Briefly: Test F: wheat leaf rust, preventive spray on wheat seedlings. As to conditions: 50 ppm (asterisk); wheat leaf rust; 100 = 100% disease control, 0 = no control.
Experiment [6] has as its system Botrytis cinerea. Briefly: Test B: gray mold, preventive spray on tomato seedlings. The settings on record: 50 ppm (asterisk); gray mold on tomato; 100 = 100% disease control, 0 = no control.
Text: as §1
The test solution was sprayed to the point of run-off on tomato seedlings. The following day the seedlings were inoculated with a spore suspension of Botrytis cinerea (the causal agent of gray mold on many crops) and incubated in a saturated atmosphere at 20° C. for 48 h, and moved to a growth chamber at 27° C. for 2 days, after which time visual disease ratings were made.
as §2

On to `OC(Cn1cncn1)(C1=NOC(c2ccc(Cl)cc2)C1)c1ccc(Cl)cc1` (single isomer, unassigned) [Compound 120], for which the “Test C rating (% disease control)” value in experiment [1] is given as 0%. The “Test G rating (% disease control)” value in experiment [2] is 98%. Moreover, the “Test E rating (% disease control)” value in experiment [3] came to 8%. Also, the “Test D rating (% disease control)” value in experiment [4] is recorded as 95%. The “Test F rating (% disease control)” value in experiment [5] came to 100%. In addition, the “Test B rating (% disease control)” value in experiment [6] was 0%.

Consider `OC(Cn1cncn1)(C1=NOC(c2ccc(F)cc2)C1)c1ccc(F)cc1` (single isomer, unassigned) [Compound 122], for which the “Test C rating (% disease control)” value in experiment [1] turned out to be 0%. Also, the “Test G rating (% disease control)” value in experiment [2] is recorded as 100%. Also, in experiment [3], the “Test E rating (% disease control)” value amounted to 77%. In experiment [4], the “Test D rating (% disease control)” value is recorded as 100%. In experiment [5], the “Test F rating (% disease control)” value amounted to 100%. Further, in experiment [6], the “Test B rating (% disease control)” value is recorded as 0%.

With `OC(Cn1cncn1)(C1=NOC(c2ccc(Cl)cc2)C1)c1ccc(Cl)cc1` (single isomer, unassigned) [Compound 123], the “Test C rating (% disease control)” value in experiment [1] is 0%. The “Test G rating (% disease control)” value in experiment [2] turned out to be 100%. The “Test E rating (% disease control)” value in experiment [3] amounted to 100%. Also, the “Test D rating (% disease control)” value in experiment [4] amounted to 100%. Moreover, the “Test F rating (% disease control)” value in experiment [5] worked out at 100%. The “Test B rating (% disease control)” value in experiment [6] is reported as 56%.

For `CC(C)(C)C1CC(C(O)(Cn2cncn2)c2ccccc2)=NO1` (single isomer, unassigned) [Compound 124], the “Test C rating (% disease control)” value in experiment [1] came out at 0%. The “Test G rating (% disease control)” value in experiment [2] stood at 96%. Also, the “Test E rating (% disease control)” value in experiment [3] is listed as 6%. The “Test D rating (% disease control)” value in experiment [4] turned out to be 0%. Moreover, in experiment [5], the “Test F rating (% disease control)” value was determined as 28%. Also, the “Test B rating (% disease control)” value in experiment [6] came to 0%.

For the molecule `CC(C)(C)C1CC(C(O)(Cn2cncn2)c2ccccc2)=NO1` (single isomer, unassigned) [Compound 125], the “Test C rating (% disease control)” value in experiment [1] was found to be 0%. For the same molecule, in experiment [2], the “Test G rating (% disease control)” value is reported as 89%. Besides, in experiment [3], the “Test E rating (% disease control)” value amounted to 0%. In addition, in experiment [4], the “Test D rating (% disease control)” value turned out to be 0%. Moreover, in experiment [5], the “Test F rating (% disease control)” value was 28%. Further, the “Test B rating (% disease control)” value in experiment [6] is recorded as 0%.

Take `OC(Cn1cncn1)(C1=NOC(c2ccc(Cl)cc2)C1)c1ccc(F)cc1F` (single isomer, unassigned) [Compound 130]: the “Test C rating (% disease control)” value in experiment [1] amounted to 0%. In experiment [2], the “Test G rating (% disease control)” value is listed as 100%. Also, in experiment [3], the “Test E rating (% disease control)” value worked out at 11%. Moreover, the “Test D rating (% disease control)” value in experiment [4] is on record as 100%. The “Test F rating (% disease control)” value in experiment [5] was found to be 100%. In addition, in experiment [6], the “Test B rating (% disease control)” value is on record as 14%.

Consider `OC(Cn1cncn1)(C1=NOC(c2ccc(Cl)cc2)C1)c1ccc(F)cc1F` (single isomer, unassigned) [Compound 131], for which the “Test C rating (% disease control)” value in experiment [1] worked out at 0%. For the same molecule, the “Test G rating (% disease control)” value in experiment [2] was 100%. Further, the “Test E rating (% disease control)” value in experiment [3] amounted to 5%. For the same molecule, the “Test D rating (% disease control)” value in experiment [4] amounted to 100%. In addition, the “Test F rating (% disease control)” value in experiment [5] came to 100%. Also, the “Test B rating (% disease control)” value in experiment [6] is 0%.

For `CC(C)(C)C(O)(Cn1cncn1)C1=NOC(c2ccc(Cl)cc2)C1` (single isomer, unassigned) [Compound 132], in experiment [1], the “Test C rating (% disease control)” value is given as 0%. Besides, in experiment [2], the “Test G rating (% disease control)” value was found to be 100%. In experiment [3], the “Test E rating (% disease control)” value came to 81%. The “Test D rating (% disease control)” value in experiment [4] amounted to 100%. The “Test F rating (% disease control)” value in experiment [5] amounted to 100%. For the same molecule, the “Test B rating (% disease control)” value in experiment [6] amounted to 99%.

On to `CC(C)(C)C(O)(Cn1cncn1)C1=NOC(c2ccc(Cl)cc2)C1` (single isomer, unassigned) [Compound 133], for which, in experiment [1], the “Test C rating (% disease control)” value was found to be 0%. For the same molecule, the “Test G rating (% disease control)” value in experiment [2] was 99%. In addition, the “Test E rating (% disease control)” value in experiment [3] was 88%. Also, the “Test D rating (% disease control)” value in experiment [4] was found to be 100%. Moreover, in experiment [5], the “Test F rating (% disease control)” value came to 100%. Further, the “Test B rating (% disease control)” value in experiment [6] is listed as 95%.
